Experimental data as given in patent US20090326259A1, “NF-Kappabeta Activation Inhibitor” (Tokyo University of Marine Science and Technology, priority 2006, published 2009).

Test system: NF-κB
Assay: LPS-stimulated NF-κB activation in RAW264.7 murine macrophage (gel shift with biotin-labelled NF-κB consensus sequence)
Format: cell-based
Conditions: RAW264.7, 1 μM compound 22 h, then 1 μg/ml LPS 2 h; FIG. 2
Procedure: [Measurement of LPS-stimulated NF-κB activation in RAW264.7 murine macrophage strain] The murine macrophage RAW264.7 is preserved in DMEM containing 10% fetal bovine serum. After treatment in DMEM with 1 μM cycloartenyl ferulate (CAF) for 22 h, it is further stimulated for 2 h in 1 μg/ml lipopolysaccharide (LPS).
The nucleoprotein of RAW264.7 cell is extracted with Transfactor Extraction kit (BD Biosciences, USA), and then is bound with the following NF-κB consensus sequence of biotin-labeling reaction for 60 min in reaction solution consisting 100 mM HEPES (pH 7.6), 5 mM EDTA, 50 mM ammonium sulfate, 5 mM DTT, 150 mM KCl, 1% (v/v) Tween20 and 0.0001% poly (dI-dC) (Amersham Biosciences, USA).
Except these experimental groups, control group reacting with 90-fold unlabeled consensus sequence, along with supershift group using anti-p50 polyclonal antibody (Abcam, USA) and anti-p65 polyclonal antibody (Santa Cruz Biotechnology, INC., USA) are established to make comparison. […]
The peroxidase activity is detected with Immobilon Western Chemiluminescent HRP substrate (Millipore, USA) and the luminous intensity is quantified by Image J (National Institutes of Health, USA) as shown in FIG. 2. […]

COc1cc(/C=C/C(=O)O)ccc1O [ferulic acid]
NF-κB activation: barely inhibits
